{"source": "ChEMBL document CHEMBL1833893", "about": "“Synthesis and anticonvulsant activity of new 1-[2-oxo-2-(4-phenylpiperazin-1-yl)ethyl]pyrrolidine-2,5-diones” (Bioorg Med Chem Lett, 2011)", "key": {"[1]": {"system": "Mus musculus", "experiment": "Anticonvulsant activity in albino CF1 mouse assessed as protection against subcutaneous pentylenetetrazole-induced seizures at 300 mg/kg, ip after 0.5 hrs", "format": "functional, organism-based", "parameters": "dose 300 mg/kg"}, "[2]": {"system": "Mus musculus", "experiment": "Anticonvulsant activity in ip dosed albino CF1 mouse assessed as protection against maximal electroshock-induced seizures after 0.5 hrs", "format": "functional", "settings": "read-out: MED"}, "[3]": {"system": "Mus musculus", "experiment": "Anticonvulsant activity in albino CF1 mouse assessed as protection against maximal electroshock-induced seizures at 300 mg/kg, ip after 4 hrs", "format": "functional, organism-based", "parameters": "dose 300 mg/kg"}, "[4]": {"system": "Mus musculus", "experiment": "Neurotoxicity in albino CF1 mouse assessed as motor impairment at 300 mg/kg, ip after 4 hrs by rotarod test", "format": "toxicity, organism-based", "parameters": "dose 300 mg/kg, route intraperitoneal", "settings": "in vivo"}, "[5]": {"system": "Mus musculus", "experiment": "Anticonvulsant activity in albino CF1 mouse assessed as protection against subcutaneous pentylenetetrazole-induced seizures at 300 mg/kg, ip after 4 hrs", "format": "functional, organism-based", "parameters": "dose 300 mg/kg"}, "[6]": {"system": "Mus musculus", "experiment": "Neurotoxicity in albino CF1 mouse assessed as motor impairment at 300 mg/kg, ip after 0.5 hrs by rotarod test", "format": "toxicity, organism-based", "parameters": "dose 300 mg/kg, route intraperitoneal", "settings": "in vivo"}, "[7]": {"system": "Mus musculus", "experiment": "Anticonvulsant activity in ip dosed albino CF1 mouse assessed as protection against maximal electroshock-induced seizures after 0.25 hrs", "format": "functional", "settings": "read-out: MED"}}, "note": "Active and inactive are the calls of the source. The rule behind the calls is not given here."}
{"molecule": "CC1(C)CC(=O)N(CC(=O)N2CCN(c3ccccc3)CC2)C1=O", "values": [{"measurement": "Activity", "setting": "[1]", "result": "inactive"}, {"measurement": "minimal effective dose", "setting": "[2]", "result": 300, "unit": "mg/kg"}, {"measurement": "Activity", "setting": "[3]", "result": "inactive"}, {"measurement": "Activity", "setting": "[4]", "result": "Non-toxic"}, {"measurement": "Activity", "setting": "[5]", "result": "inactive"}, {"measurement": "Activity", "setting": "[6]", "result": "Non-toxic"}, {"measurement": "minimal effective dose", "setting": "[7]", "result": 100, "unit": "mg/kg"}]}
